Test results as given in PMC10600239, “Selective MCL-1 inhibitor ABBV-467 is efficacious in tumor models but is associated with cardiac troponin increases in patients” (Communications Medicine, 2023).
pEC50: −log10 of the molar value. Several values for one entry are separate records, joined by “and”; a condition that tells them apart may be missing. Identical values can stand only once. Like-named read-outs stand apart in the source and are kept apart here.

Key:
AMO-1 cells = test: In vitro cell viability assay (CellTiter-Glo); type: cell-based, human; conditions: for pEC50: read-out: Individual EC50
Experimental: (§1) All cell lines were grown and treated in RPMI 1640 or Dulbecco’s modified Eagle medium (Sigma, St. Louis, MO) supplemented with 10% fetal bovine serum (Gibco) or 10% human serum (Sigma) and maintained in a humidified incubator at 5% CO2 and 37 °C. DLD-1, MV4-11, NCI-H929 (all ATCC, Manassas, VA, USA) and AMO-1 (DSMZ, Braunschweig, Germany) cells were plated 4000 cells per well in 384-well tissue culture plates and treated with compounds of interest for 24 h at 37 °C, 5% CO2 humidified incubator. Each concentration was tested in duplicate at least 3 separate times. Adherent cells were allowed to adhere overnight prior to treatment. Alternatively, AMO-1 or NCI-H929 cells were treated with ABBV-467 for the indicated contact times (1–24 h) at 37 °C in a 5% CO2 humidified incubator and washed 3 times with compound-free media prior to incubation for the remainder of a 24-h treatment period. Cell viability was subsequently determined using CellTiter-Glo (Promega, Madison, WI, USA) according to the manufacturer’s instructions.
(§2) For in vitro viability assays, mean EC50 and EC90 values were determined from the resulting dose-response curves from at least 3 independent experiments, and depict the mean ± standard error of the mean.
(§3) Fig. 2 Apoptosis induced by ABBV-467 is mechanism based and induces cell death in MCL-1-dependent cell lines after short target engagement periods. H929 cells were treated with ABBV-467 in the presence or absence of the pan-caspase inhibitor z-VAD-fmk (50 µM) and the impact on caspase-3/7 activation (a), mitochondrial membrane potential (ΔΨm; b), and apoptosis (c) determined. Alternatively, BAK-deficient SKBR3 cells were treated with ABBV-467 for 24 h and the impact on cell viability compared with the parental cell line, determined by CellTiter-Glo. Inset depicts a western blot of BAK and BAX expression in SKBR3 cell variants using GAPDH as a loading control. Each of the 3 proteins were probed on separate blots (d). Data in (a–d) are presented as the mean ± standard error of the mean. H929 and AMO-1 cells were treated with ABBV-467 at the indicated concentrations and the impact on caspase-3/7 activation and viability (DRAQ7-positive) cells determined over time by Incucyte®. Data are presented as the mean ± standard deviation (e). H929 or AMO-1 cells were cultured in media containing 10% human serum and treated with ABBV-467 for the indicated contact times. Cells were subsequently washed 3 times with drug-free media and incubated in drug-free media for the remainder of the 24-h treatment period at 37 °C before cell viability was determined by CellTiter-Glo. Mean EC50 and EC90 values were determined from the resulting dose-response curves from at least 3 independent experiments, each assessed in quadruplicate, and depict the mean ± standard error of the mean. Presented ABBV-467 dose-response curves in H929 and AMO-1 cells were compiled from at least 3 independent experiments (f).

H929 cells = test: In vitro cell viability assay (CellTiter-Glo); type: cell-based, human; conditions: for pEC50: read-out: Individual EC50
Experimental: as §1, §2, §3

DLD-1 cells = test: In vitro cell viability assay (CellTiter-Glo); type: cell-based, human; conditions: Homo sapiens; for EC50: DLD-1, read-out: DLD-1 EC50 (nM), 10% FBS, 24 h continuous treatment
Experimental: as §1, §2

MV4-11 cells = test: In vitro cell viability assay (CellTiter-Glo); type: cell-based, human; conditions: for pEC50: read-out: Individual EC50
Experimental: as §1, §2

SKBR3 cells = test: Cell viability of parental and BAK-, BAX-, BCL2L11-, PMAIP1-deficient SKBR3 cells (CellTiter-Glo); type: cell-based; design: SKBR3 BAK Fig 2D: unit not given here
Experimental: as §3
Supplementary Fig. S5: SKBR3 cells deficient in BAX, BAK , PM AIP 1 (gene encoding the protein NOXA),
BCL 2L 11 (gene encoding the protein BIM) were treated with ABBV-467 for 24 hours and the impact on
cell death compared to the parental cell line determined by CellTiter- Glo™.

[1] = Homo sapiens, AMO1, 24 h, read-out: AMO-1 EC50 (nM, 10% FBS), 10% FBS, 24 h continuous treatment
[2] = Homo sapiens, NCI-H929, 24 h, read-out: H929 EC50 (nM, 10% FBS), 10% FBS, 24 h continuous treatment
[3] = Homo sapiens, MV4-11, 24 h, read-out: MV4-11 EC50 (nM, 10% FBS), 10% FBS, 24 h continuous treatment
[4] = AMO-1, individual determinations
[5] = Homo sapiens, AMO1, AMO-1, arithmetic mean, read-out: Arithmetic Mean EC50 nM
[6] = Homo sapiens, AMO1, AMO-1, arithmetic mean, read-out: Arithmetic Mean EC50 µM
[7] = Homo sapiens, NCI-H929, NCI-H929, arithmetic mean, read-out: Arithmetic Mean EC50 nM
[8] = Homo sapiens, NCI-H929, NCI-H929, arithmetic mean, read-out: Arithmetic Mean EC50 µM
[9] = DLD-1, arithmetic mean, read-out: Arithmetic Mean EC50
[10] = DLD-1, individual determinations, read-out: Individual EC50
[11] = Homo sapiens, MV4-11, MV4-11, arithmetic mean, read-out: Arithmetic Mean EC50 nM
[12] = Homo sapiens, MV4-11, MV4-11, arithmetic mean, read-out: Arithmetic Mean EC50 µM
[13] = MV4-11, individual determinations
[14] = Homo sapiens, AMO1, AMO-1, individual determinations
[15] = NCI-H929, individual determinations
[16] = Homo sapiens, MV4-11, MV4-11, individual determinations

SMILES | EC50 (H929 cells; [2]) | EC50 (DLD-1 cells) | EC50 (MV4-11 cells; [3]) | EC50 (H929 cells; [7]) | EC50 (H929 cells; [8]) | pEC50 (DLD-1 cells; [9]) | pEC50 (DLD-1 cells; [10]) | EC50 (MV4-11 cells; [11]) | EC50 (MV4-11 cells; [12]) | pEC50 (MV4-11 cells; [13]) | pEC50 (H929 cells; [15]) | pEC50 (MV4-11 cells; [16]) | EC50 (AMO-1 cells; [1]) | pEC50 (AMO-1 cells; [4]) | EC50 (AMO-1 cells; [5]) | EC50 (AMO-1 cells; [6]) | pEC50 (AMO-1 cells; [14]) | further results
Cc1c(Cl)c2c(Cl)c(C)c1-c1c(-c3ccc(F)cc3)sc3ncnc(c13)O[C@@H](C(=O)O)Cc1cc(ccc1OCc1ccnc(-c3ccc(OC[C@H]4COCCO4)cc3)n1)OC[C@@H](CN1CCN(C)CC1)O2 [Compound A-1747745.7] | – | – | – | – | – | – | – | – | – | – | – | – | – | – | – | – | – | SKBR3 BAK Fig 2D (SKBR3 cells; SKBR3 BAK-/-, Log [A-1747745.7] uM 0.045757): 84.0406 and 88.7361 and 91.3691; SKBR3 BAK Fig 2D (SKBR3 cells; SKBR3 BAK-/-, Log [A-1747745.7] uM 0.522879): 91.5492 and 90.6375 and 98.324; SKBR3 BAK Fig 2D (SKBR3 cells; SKBR3 BAK-/-, Log [A-1747745.7] uM 1): 71.243 and 87.693 and 82.7613; SKBR3 BAK Fig 2D (SKBR3 cells; SKBR3 BAK-/-, Log [A-1747745.7] uM -0.43136): 93.7393 and 91.7734 and 95.9555; SKBR3 BAK Fig 2D (SKBR3 cells; SKBR3 BAK-/-, Log [A-1747745.7] uM -0.90849): 91.4405 and 96.0162 and 91.1767; SKBR3 BAK Fig 2D (SKBR3 cells; SKBR3 BAK-/-, Log [A-1747745.7] uM -1.38561): 96.4117 and 96.5016 and 91.1114; SKBR3 BAK Fig 2D (SKBR3 cells; SKBR3 BAK-/-, Log [A-1747745.7] uM -1.86273): 100.833 and 96.8873 and 90.9219; SKBR3 BAK Fig 2D (SKBR3 cells; SKBR3 BAK-/-, Log [A-1747745.7] uM -2.33985): 101.031 and 99.3037 and 92.3815; SKBR3 BAK Fig 2D (SKBR3 cells; SKBR3 BAK-/-, Log [A-1747745.7] uM -2.81697): 103.475 and 99.2425 and 96.192; SKBR3 BAK Fig 2D (SKBR3 cells; SKBR3 BAK-/-, Log [A-1747745.7] uM -3.29409): 92.6268 and 101.141 and 97.8192; SKBR3 BAK Fig 2D (SKBR3 cells; SKBR3 BAK-/-, Log [A-1747745.7] uM -3.79): 106.888 and 100.173 and 98.0201; SKBR3 BAK Fig 2D (SKBR3 cells; SKBR3 Parent, Log [A-1747745.7] uM -1.86273): 28.8447 and 52.516 and 42.8969; SKBR3 BAK Fig 2D (SKBR3 cells; SKBR3 Parent, Log [A-1747745.7] uM -2.33985): 83.0425 and 94.5116 and 88.5924; SKBR3 BAK Fig 2D (SKBR3 cells; SKBR3 Parent, Log [A-1747745.7] uM -2.81697): 98.7606 and 99.166 and 97.8729; SKBR3 BAK Fig 2D (SKBR3 cells; SKBR3 Parent, Log [A-1747745.7] uM -3.29409): 89.9706 and 97.7937 and 96.3217; SKBR3 BAK Fig 2D (SKBR3 cells; SKBR3 Parent, Log [A-1747745.7] uM -3.79): 100.8 and 103.293 and 99.6415
CO[C@]1(CN2CCN3CCCC[C@@H]3C2)/C=C/C[C@H](C)[C@@H](C)S(=O)(=O)NC(=O)c2ccc3c(c2)N(C[C@@H]2CC[C@H]21)C[C@@]1(CCCc2cc(Cl)ccc21)CO3 [AMG 397, reference compound] | 13 nM | > 10000 nM | 43.6 nM | 13 nM | 13 nM | < 5.00 | < 5.00 | 43.6 nM | 43.6 nM | 7.38 and 7.35 | 7.87 and 7.89 | 7.35 | 13.5 nM | 7.88 and 7.89 | 13.5 nM | 13.5 nM | 7.83 | pEC50 (H929 cells; Homo sapiens, NCI-H929, NCI-H929, individual determinations): 7.90
CO[C@H]1/C=C/C[C@H](C)[C@@H](C)S(=O)(=O)NC(=O)c2ccc3c(c2)N(C[C@@H]2CC[C@H]21)C[C@@]1(CCCc2cc(Cl)ccc21)CO3 [AMG 176, reference compound] | 195 nM | > 10000 nM | 106 nM | – | – | – | – | – | – | – | – | – | 90.6 nM | – | – | – | – | –

The next lines start with results.

EC50 (H929 cells; [2]) | EC50 (DLD-1 cells) | EC50 (MV4-11 cells; [3]) | EC50 (H929 cells; [7]) | EC50 (H929 cells; [8]) | pEC50 (DLD-1 cells; [9]) | pEC50 (DLD-1 cells; [10]) | EC50 (MV4-11 cells; [11]) | EC50 (MV4-11 cells; [12]) | pEC50 (MV4-11 cells; [13]) | pEC50 (H929 cells; [15]) | pEC50 (MV4-11 cells; [16]) | SMILES | EC50 (AMO-1 cells; [1]) | pEC50 (AMO-1 cells; [4]) | EC50 (AMO-1 cells; [5]) | EC50 (AMO-1 cells; [6]) | pEC50 (AMO-1 cells; [14]) | further results
31.7 nM | > 10000 nM | 34.9 nM | – | – | – | – | – | – | – | – | – | Cc1c2c(nn1C)CSCc1cc(n(C)n1)CSc1cc(c3ccccc3c1)OCCCc1c(C(=O)O)n(C)c3c-2c(Cl)ccc13 [AZD5991, reference compound] | 22.9 nM | – | – | – | – | –
– | – | – | 195 nM | 195 nM | < 5.00 | < 5.00 | 106 nM | 106 nM | 7.07 and 6.69 | – | – | CO[C@H]1/C=C/C[C@H](C)[C@@H](C)S(=O)(=O)NC(=O)c2ccc3c(c2)N(C[C@@H]2CC[C@H]21)C[C@@]1(CCCc2cc(Cl)ccc21)CO3 [AMG-176] | – | 6.98 and 6.89 and 6.76 | 90.6 nM | 90.6 nM | – | –
– | – | – | 31.6 nM | 31.6 nM | < 5.00 | < 5.00 | 34.9 nM | 34.9 nM | 7.46 and 7.48 | 7.66 and 7.69 and 7.70 and 7.19 | 7.44 | Cc1c2c(nn1C)CSCc1cc(n(C)n1)CSc1cc(c3ccccc3c1)OCCCc1c(C(=O)O)n(C)c3c-2c(Cl)ccc13 [AZD-5991] | – | 7.73 and 7.74 and 7.50 | 22.9 nM | 22.9 nM | 7.64 | –
